US20250255847A1, “[…]s: Novel Drugs for Triple Negative Breast Cancer” (SIMMARON RSEARCH INC, priority 2024, published 2025)

Biological target: T1, full-length STAT5b protein (Homo sapiens, UniProt P51692)
T1 construct: full-length STAT5b protein melting was assessed with (J) SIM-1, (K) SIM-2, and (L) stattic
T1 sequence (P51692 1-787): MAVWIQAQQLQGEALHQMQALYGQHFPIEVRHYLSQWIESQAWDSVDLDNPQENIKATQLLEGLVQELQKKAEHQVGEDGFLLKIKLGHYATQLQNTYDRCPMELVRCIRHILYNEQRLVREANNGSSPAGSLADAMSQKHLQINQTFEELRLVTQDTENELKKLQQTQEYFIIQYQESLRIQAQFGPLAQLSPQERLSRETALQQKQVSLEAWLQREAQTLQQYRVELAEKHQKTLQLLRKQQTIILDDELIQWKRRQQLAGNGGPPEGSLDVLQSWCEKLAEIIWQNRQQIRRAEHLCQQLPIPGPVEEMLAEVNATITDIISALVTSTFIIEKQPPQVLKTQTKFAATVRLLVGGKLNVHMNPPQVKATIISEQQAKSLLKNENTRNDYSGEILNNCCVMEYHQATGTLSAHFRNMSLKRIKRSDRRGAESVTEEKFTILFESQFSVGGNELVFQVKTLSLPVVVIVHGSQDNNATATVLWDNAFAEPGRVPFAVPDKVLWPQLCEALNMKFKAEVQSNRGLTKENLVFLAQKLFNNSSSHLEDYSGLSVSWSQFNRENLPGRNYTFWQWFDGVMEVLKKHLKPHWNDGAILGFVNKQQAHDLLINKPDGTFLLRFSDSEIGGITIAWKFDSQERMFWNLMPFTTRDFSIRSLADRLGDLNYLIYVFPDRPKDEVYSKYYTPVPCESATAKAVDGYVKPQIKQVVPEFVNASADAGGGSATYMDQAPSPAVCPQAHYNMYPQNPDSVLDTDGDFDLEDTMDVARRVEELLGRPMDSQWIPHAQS
Test: Protein thermal shift binding assay with STAT5b
Details: increasing doses
Experimental: FIG. 5 illustrates an embodiment of the present invention and illustrates evaluations of SIM-1 and SIM-2 as STAT3 inhibitors. (A) Protein thermal shift assay was performed to assess the melting of purified recombinant STAT3 (blue; 0.5 μg protein) (Tm=melting temperature=68.88° C.). The representative melting curves were derived after adding SIM-1 (red; 4 nM), SIM-2 (purple; 8 nM), and positive control stattic (grey; 20 nM) to the STAT3 protein. The differences of melting temperature (ΔTm) between pure protein and protein+ligands are −4.54° C., −4.16° C., and 0.39° C. for SIM-1, SIM-2, and stattic (ΔTm^cut-off>2° C.). (B) Phospho protein array analysis was conducted in cell lysates of MDA-MB-468 cells treated with DMSO control (top left), 25 ng/mL EGF (top right), EGF+10 nM SIM-1 (bottom left), and EGF+SIM-2 (bottom right) for 24 hrs. Each colored arrowhead represents a specific phosphoprotein, and the description was added in the bottom of array images. S=serine and Y=tyrosine. Relative levels of (C) Tyrosine 705 (Y705) phosphorylated STAT3, (D) Serine 727 (S727) phosphorylated STAT3, (E) Tyrosine 693 (Y693) phosphorylated STAT4, (F) Tyrosine 694 ([…]) phosphorylated STAT5A had been derived after normalizing the spot densities (n=5) with respective β-actin spots. Results are mean±SD of five different spot analyses. One-way ANOVA was adopted to test the significance of mean between groups at **p<0.01, and ****p<0.0001. Ns=no significance. Thermal shift assays of increasing doses of (G) SIM-1, (H) SIM-2, and (I) stattic with purified STAT1 protein (0.5 μg protein). The respective ΔTm values were given with the plot after matching with the color code. Similarly, full-length STAT5b protein melting was assessed with (J) SIM-1, (K) SIM-2, and (L) stattic. Results are confirmed after three different experiments.
To confirm the result, PTS assay of STAT1 with SIM-1 (FIG. 5G), SIM-2 (FIG. 5H), and stattic (FIG. 5I) was performed. […] Similar results were observed while performing the binding assay with STAT5b.

CCOC(=O)c1c(NC(C)=O)sc2c(Cl)c(/C=N/O)ccc12 [SIM-2, ethyl 2-acetamido-7-chloro-6-(hydroxyiminomethyl)-1-benzothiophene-3-carboxylate]
shift in the melting curve of STAT5b: unable to produce any significant shift

O=C(O)CCC(=O)NCc1csc2ccc(Cl)cc12 [SIM-1, 4-[(5-chloro-1-benzothiophen-3-yl)methylamino]-4-oxobutanoic acid]
shift in the melting curve of STAT5b: unable to produce any significant shift
